In US20120004182A1, “PHARMACEUTICAL COMPOSITIONS AND METHODS FOR INDUCTION AND ENHANCEMENT OF APOPTOSIS IN TUMOR CELLS” (priority 2010, published 2012):

Tested on: human breast tumors
Test: In vivo studies in nude mice bearing s.c. tumors
Details: intraperitoneal, every 2 days, 10 days of treatment, 25 nmol antagonist, 1 μmol 4OH-Tamoxifen per mouse
From the text: Female athymic (nude) mice (CD1 nu/nu), 6 to 8 weeks old on arrival, were obtained from Charles River (Sulzfeld, Germany). The mice were housed in sterile cages in a temperature-controlled room with 12-hour light/12-hour dark schedule and were fed autoclaved chow and water ad libitum. All experiments were done according to the German ethical guidelines and the German laws for protection of animals.
Tumors were initiated by subcutaneous injection of 1×10^7 cancer cells into the right flank. After 2 weeks all animals had developed solid tumors of about 200 mm^3 and treatment was initiated. The in vivo experiments were done as follows: 25 nmol of GnRH-II antagonist of Seq. ID. No. 23 without or with 1 μmol of 40H-Tamoxifen per mouse (5 mice per group and control group) were injected intraperitoneally. Treatment was repeated every 2 days. Tumor volumes were measured. The mice were killed after 10 days of treatment. […]
The proliferation and induction of apoptosis were analyzed after treatment without or with a GnRH-II antagonist without or with co-treatment with 4OH-Tamoxifen. Nude mice bearing human breast tumors s.c. were treated without or with a GnRH-II antagonist alone or in combination with 4OH-Tamoxifen and the tumor volumes were measured.

Row | Compound | tumor volume
1 | CC/C(=C(\c1ccccc1)c1ccc(OCCN(C)C)cc1)c1ccccc1 [Tamoxifen] | increases
2 | Ac-D-2Nal-D-4 Cpa-D-3 Pal-Ser-His-D-3 Pal-Trp-Leu-Pro-D-Ala-NH2 [GnRH II antagonist] | increases
